Where no end group is shown, it is not given here.

The target in assay [1] is T1, RAMP1-CLR ECD (CGRP); purified MBP-RAMP1 ECD-(GS)5-CLR ECD-H6 fusion protein (Homo sapiens, UniProt O60894+Q16602).
T1 construct: MBP-hRAMP1.24-111-(Gly-Ser)5-hCLR.29-144-H6; made in house; host or cells: E. coli
The assay can be described thus: Fluorescence polarization (FP) peptide binding competition assay, CGRP receptor ECD complex. The note with it: for Receptor Selectivity, fold for CGRP: CGRP (RAMP1-CLR ECD) over AM1 (RAMP2-CLR ECD), FP assay; for Ki: RAMP1-CLR ECD (CGRP) KI (nM), FP competition, FITC-AM W/W probe 7 nM, fusion protein 15 nM. On the procedure:
(§1) Fluorescence polarization peptide binding assay. […] The reactions (50 μL) were incubated for 2 hours at room temperature to reach equilibrium, and the anisotropy was measured in black half-area 96-well plates using a BMG LABTECH's POLARstar® Omega plate reader (Ortenberg, Germany). The reaction buffer was 50 mM HEPES, pH 7.5, 150 mM NaCl, 0.5 mg/ml fatty acid-free BSA, 0.5 mM EDTA, 0.5 mM maltose. Ki values were calculated using nonlinear regression fitting of the competition curves to the exact analytical equations of Roehrl et al. (Biochemistry (2004) 43:16056-66) using GraphPad Prism 5.0 (GraphPad Software, San Diego Calif.).
(§2) The ability of the indicated peptides to displace a FITC-Ahx-AM(37-52)NH2 [S45W, Q50W] probe (7 nM) from purified MBP-RAMP1 ECD-(GS)5-CLR ECD-H6 fusion protein (15 nM) was assessed by fluorescence polarization (anisotropy). The reactions were incubated for 2 hours at room temperature to reach equilibrium, and the anisotropy was measured in black half-area 96-well plates using a BMG LABTECH's POLARstar® Omega plate reader (Ortenberg, Germany). The reaction buffer was 50 mM HEPES, pH 7.5, 150 mM NaCl, 0.5 mg/ml fatty acid-free BSA, 0.5 mM EDTA, 0.5 mM maltose. KI values were calculated using nonlinear regression fitting of the competition curves to the exact analytical equations of Roehrl et al. (Biochemistry (2004) 43:16056-66) using GraphPad Prism 5.0 (GraphPad Software, San Diego Calif.).
as §2, with “Single representative experiments conducted with duplicate samples are shown. Error bars are S.E.M. The ability” for “The ability”, “displace a FITC-Ahx-AM(37-52)NH2[S45W, Q50W] probe” for “displace a FITC-Ahx-AM(37-52)NH2 [S45W, Q50W] probe”
A fluorescence polarization/anisotropy (FP) peptide-binding assay was developed using N-terminally FITC-labeled AM(37-52) S45W/Q50W as the probe, hereafter “FITC-AM W/W.” The probe was custom synthesized and HPLC-purified by RS Synthesis. The large size difference between the MBP-RAMP ECD-CLR ECD fusion proteins (˜65 kDa) and the probe (˜2.5 kDa) ensures a significant anisotropy difference between bound and free states of the probe. […] Kd values for the probe at each of the tethered ECD fusion proteins were determined in equilibrium saturation binding experiments (data not shown), and KI values were determined for unlabeled peptides in equilibrium competition experiments (Table 1; FIGS. 2-5). The data were analyzed according to exact analytical equations using non-linear regression curve fitting in GraphPad Prism 5.0 (GraphPad Software) via user-defined equations.
(In general: Fluorescence polarisation rises when a labelled molecule tumbles more slowly, as on binding a larger partner.)

In assay [2] the target is T2, AMY1 receptor extracellular domain complex; purified MBP-RAMP1 ECD-(GS)5-CTR ECD-H6 fusion protein (Homo sapiens, UniProt O60894+P30988).
T2 construct: purified MBP-RAMP1 ECD-(GS)5-CTR ECD-H6 fusion protein (200 nM); made in house; host or cells: HEK293T
Put plainly: AlphaLISA luminescent peptide binding assay, AMY1 receptor ECD complex. The following applies: displacement of Biotin-AC413 probe (100 nM), fusion protein 200 nM. How it is done: A single representative experiment conducted with duplicate samples is shown. Error bars are S.E.M. The ability of the indicated peptides to displace a Biotin-AC413 probe (100 nM) from purified MBP-RAMP1 ECD-(GS)5-CTR ECD-H6 fusion protein (200 nM) was assessed by AlphaLISA® luminescent peptide binding assay (Perkin-Elmer, Waltham, Mass.) as described in Lee et al. (J Biol. Chem (2016) 291:8686-8700). The reactions were incubated for 5 hours at room temperature to reach equilibrium, and the luminescence was measured in white 384-well plates using a BMG LABTECH's POLARstar® Omega plate reader (Ortenberg, Germany). The reaction buffer was 50 mM MOPS, pH 7.4, 150 mM NaCl, 7 mg/ml fatty acid-free BSA and the streptavidin-coated donor beads and MBP-antibody coated acceptor beads were at 15 μg/ml each. IC50 values were calculated using nonlinear regression fitting of the competition curves to a three-parameter, one-site competitive binding equation in GraphPad Prism 5.0 (GraphPad Software, San Diego Calif.).

For assay [3], the target named is T3, RAMP2-CLR ECD (AM1); purified MBP-RAMP2 ECD [L106R]-(GS)5-CLR ECD-H6 fusion protein (Homo sapiens, UniProt O60895+Q16602, L106R).
T3 construct: MBP-hRAMP2.55-140 [L106R]-(Gly-Ser-Ala)3-hCLR.29-144-H6; made in house; host or cells: E. coli
Put plainly: Fluorescence polarization (FP) peptide binding competition assay, AM1 receptor ECD complex. The note with it: FP competition, FITC-AM W/W probe 7 nM, fusion protein 110 nM; read-out: RAMP2-CLR ECD (AM1) KI. How it is done: as §1
FIG. 3(A-K) depicts binding of (A) AM-based peptide AM(37-52)NH2, and variant peptide AM(37-52)NH2[S45W, Q50W]; (B) AM-based peptide AM(37-52)NH2, variant peptide AM(37-52)NH2[Q50F], and variant peptide AM(37-52)NH2[Q50W]; (C) variant peptides AM(37-52)NH2[K46L], AM(37-52)NH2[K46M], and AM(37-52)NH2[D39F]; (D) variant peptides AM(37-52)NH2[D39F, K46L, Q50W], AM(37-52)NH2[D39F, K46L, Q50W, Y52F], and AM(37-52)NH2[S45W, K46L, Q50W, Y52F]; (E) variant peptides AM(37-52)NH2[[D39K], AM(37-52)NH2[K46L, Q50W], and AM(37-52)NH2[K46L, Q50W, Y52F]; (F) variant peptides AM(37-52)NH2[S45W, K46M, Q50W, Y52F], and AM(37-52)NH2[S45W, K46W, Q50W, Y52F]; (G) variant peptides AM(37-52)NH2[S45T, K46W, Q50W], AM(37-52)NH2[S45T, K46L, Q50W], and AM(37-52)NH2[S45W, K46L, S48G, Q50W, Y52F]; (H) variant peptide AM(37-52)NH2[S45W, K46L, I47M, Q50W, Y52F]; (I) variant peptides AM(37-52)NH2[S45R, K46W, Q50W], and AM(37-52)NH2[S45R, K46L, Q50W]; (J) variant peptides AM(37-52)NH2[S45R, K46W, S48G, Q50W], AM(37-52)NH2[S45R, K46L, S48G, Q50W], and AM(37-52)NH2[S45R, K46W, I47L, S48G, Q50W]; and (K) variant peptides AM(37-52)NH2[D39W, Q50W], and AM(37-52)NH2[D37V, S45W, K46L, Q50W, Y52F], to the purified AM1 receptor extracellular domain complex. Single representative experiments conducted with duplicate samples are shown. […] The reactions were incubated for 2 hours at room temperature to reach equilibrium, and the anisotropy was measured in black half-area 96-well plates using a BMG LABTECH's POLARstar® Omega plate reader (Ortenberg, Germany). The reaction buffer was 50 mM HEPES, pH 7.5, 150 mM NaCl, 0.5 mg/ml fatty acid-free BSA, 0.5 mM EDTA, 0.5 mM maltose. KI values were calculated using nonlinear regression fitting of the competition curves to the exact analytical equations of Roehrl et al. (Biochemistry (2004) 43:16056-66) using GraphPad Prism 5.0 (GraphPad Software, San Diego Calif.).
as §1, with “Single representative experiments conducted with duplicate samples are shown.” for “Fluorescence polarization peptide binding assay.”, “reactions” for “reactions (50 μL)”, “KI” for “Ki”
A fluorescence polarization/anisotropy (FP) peptide-binding assay was developed using N-terminally FITC-labeled AM(37-52) S45W/Q50W as the probe, hereafter “FITC-AM W/W.” The probe was custom synthesized and HPLC-purified by RS Synthesis. The large size difference between the MBP-RAMP ECD-CLR ECD fusion proteins (˜65 kDa) and the probe (˜2.5 kDa) ensures a significant anisotropy difference between bound and free states of the probe. […] Kd values for the probe at each of the tethered ECD fusion proteins were determined in equilibrium saturation binding experiments (data not shown), and KI values were determined for unlabeled peptides in equilibrium competition experiments (Table 1; FIGS. 2-5).

For orientation: Ki means a measure of affinity in units of concentration, obtained from inhibition or displacement. Broadly, the IC50 is the concentration that gives 50% inhibition. Low readings indicate inhibition by little substance, high ones a need for much substance. Take FVPTDVGPWSF-NH2 [N31D/S34P/K35W/A36S]: in assay [1], the “Receptor Selectivity, fold for CGRP” value is 1856-fold for CGRP and the Ki was 1.32 nM. In addition, the IC50 in assay [2] is 260 nM.
On to “FVPTDVGPWSY-NH2 [N31D/S34P/K35W/A36S/F37Y]”, for which, in assay [1], the “Receptor Selectivity, fold for CGRP” value is on record as 245-fold for CGRP and the inhibition constant Ki was 1.32 nM. In addition, in assay [3], the Ki is 324 nM.
